In PubChem BioAssay AID1259342 (Broad Institute, 2017):
Activity calls are given as the source filed them.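 Rule for the calls: active = fitted half-maximal inhibitory concentration AC50 at most ten times the top concentration tested; inconclusive = flat fit with 30 to 70% inhibition, or unusable fit; inactive = AC50 above ten times the top concentration.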

The compounds below were run against E3 ubiquitin-protein ligase TRIM62 (Homo sapiens) (UniProt Q9BVG3) (assay: inhibitors of TRIM62-driven CARD9 ubiquitylation, dose response, CARD9-TRIM62 disruptor project, biochemical, ubiquitin ELISA, AlphaLISA TUBE (AID 1259342;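 for AC50: potency is for inhibitors that reduce CARD9 ubiquitylation signal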)). Settings: TRIM62-mediated CARD9 ubiquitylation, AlphaLISA TUBE detection.
Chain of E3 ubiquitin-protein ligase TRIM62 (Homo sapiens) (Q9BVG3 whole entry, looked up): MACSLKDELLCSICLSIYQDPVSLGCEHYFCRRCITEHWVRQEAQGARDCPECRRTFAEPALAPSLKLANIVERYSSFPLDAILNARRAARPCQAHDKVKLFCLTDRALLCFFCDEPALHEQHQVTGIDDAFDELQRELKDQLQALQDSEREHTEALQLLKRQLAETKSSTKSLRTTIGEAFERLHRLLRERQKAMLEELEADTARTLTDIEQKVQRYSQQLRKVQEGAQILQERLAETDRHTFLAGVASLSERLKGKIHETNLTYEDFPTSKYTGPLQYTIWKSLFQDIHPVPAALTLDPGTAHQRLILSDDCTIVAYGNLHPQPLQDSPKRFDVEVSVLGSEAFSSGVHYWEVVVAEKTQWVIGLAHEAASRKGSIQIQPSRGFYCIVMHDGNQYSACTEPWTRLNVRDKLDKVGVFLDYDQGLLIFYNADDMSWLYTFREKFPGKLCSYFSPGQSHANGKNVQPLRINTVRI

Row | AC50 | Compound
1 | 60.9 µM | Cc1ccc(-c2cc(C(=O)Nc3ccccn3)c3ccccc3n2)o1
2 | > 160 µM (inactive) | Nc1ccccc1Sc1nccc(C(F)(F)F)n1
3 | 56.6 µM | Cc1sc2ncnc(SCc3ccco3)c2c1C
4 | 3.96 µM | Cc1nc(C)c(C(=O)Nc2ncc([N+](=O)[O-])s2)o1
5 | 11.3 µM | O=C(NCCCN1CCOCC1)c1cc(-c2ccco2)nc2ccccc12
6 | 8.47 µM | COc1cccc(NC(=O)CN(C)C(=O)c2cc3c(s2)CCC3)c1
7 | 13 µM | Cc1nn2c(c1-c1ccccc1)NC(c1ccco1)=CC2c1ccco1 (configuration not stated)
8 | 18.2 µM | NC(=O)C1(N2CCCCC2)CCN(c2ncc(NC(=O)c3ccc(Cl)cc3)cc2C(=O)O)CC1
9 | 9.03 µM | Cc1ccccc1C(=O)Nc1cnc(N2CCC(C(N)=O)(N3CCCCC3)CC2)c(C(=O)O)c1
10 | > 160 µM (inactive) | Cc1ccc(N2NC(c3ccc(Br)cc3)=CCC2=O)cc1
11 | 27.6 µM | COc1ccc(-n2c(C)c3c(OC)cccc(=O)c3c2C)cc1
12 | 48.2 µM | CC(=O)Nc1ccc2nc3c(=O)n(C)c(=O)n(C)c3nc2c1
13 | > 160 µM (inactive) | O=c1oc(/C=C/c2ccc([N+](=O)[O-])s2)nc2ccccc12
14 | 42.2 µM | O=S(=O)(Nc1nc2ccc(S(=O)(=O)N3CCCCC3)cc2s1)c1ccccc1
15 | 38.1 µM | Cc1c(C(=O)OCC2CCCO2)[nH]c2c1C(=O)CC(c1ccco1)C2 (configuration not stated)
16 | 79.5 µM | COc1cc(N)c(Cc2nccc3cc(OC)c(OC)cc23)cc1OC
17 | > 160 µM (inactive) | O=C(CC1Nc2ccccc2OC1=O)Nc1ccc(Cl)cc1 (configuration not stated)

Same assay, conditions: TRIM62-mediated CARD9 ubiquitylation, AlphaLISA TUBE detection; at 80 µM (top of the series)

Row | activity change, negative = inhibition | Compound
18 | inactive | Cc1cnc(C)c(N2CCN(C(=O)[C@H]3CC[C@@H](N)C3)CC2)n1
19 | inactive | CCNc1ncc(C(=O)NCCc2nc3c(s2)CCCC3)cn1
20 | inactive | CCCN1CCCn2nc(CNC(=O)[C@H]3CC[C@@H](N)C3)cc2C1
21 | inactive | CC(C(=O)N1CCCC1)N1CCN(c2ccccc2O)CC1 (configuration not stated)
22 | inactive | COc1ccc(S(=O)(=O)c2ccccc2)cc1NS(=O)(=O)c1cccc(C(=O)O)c1
23 | inactive | C(=N\n1cnnc1SCc1ccccc1)/c1ccco1
24 | inactive | CCOC(=O)/C=C/S(=O)(=O)c1ccc(NC(C)=O)cc1
25 | inactive | O=C(NCc1ccco1)C1CCCN(S(=O)(=O)c2cccc3nonc23)C1 (configuration not stated)
26 | inactive | FC(F)(F)c1cc(Cl)c2nnc(C(F)(F)Cl)n2c1
27 | inactive | Cc1ccc2c(c1)C(N1CCCC1=O)CC(c1ccco1)N2 (configuration not stated)
28 | inactive | O=C(NC(Sc1ncccn1)C(=O)c1ccccc1)c1ccccc1 (configuration not stated)
29 | inactive | CN(Cc1ccco1)S(=O)(=O)c1nnc(NC(=O)c2ccccc2)s1
30 | inactive | Nc1ccc2ncccc2c1N
31 | inactive | O=C(CCn1cncn1)N1CCC(n2cc(-c3ccccn3)nn2)CC1
32 | inactive | CC(C)=CCC(C#N)(CC=C(C)C)C(=O)O
33 | inactive | CCOc1ccc(-n2c3nc4ccccc4nc3c3c(=O)n(Cc4ccco4)cnc32)cc1
34 | inactive | CN1C(=O)C(c2ccccc2[N+](=O)[O-])C(=O)c2ccccc21 (configuration not stated)
35 | inactive | CC1(C)Cc2c(c(N3CCOCC3)nc3sc(C(=O)NCc4ccco4)c(N)c23)CO1
36 | inactive | COc1ccc(CNC(=O)c2nc(Nc3ccc(C)cc3)c3ccccc3n2)cc1

Row | Compound | activity change, negative = inhibition
37 | O=C(Nc1ccon1)c1cc2cccnc2n(Cc2ccccc2)c1=O | inactive
